Test system: immature dendritic cells
Assay: Cytokine production in immature dendritic cells
Type: cell-based
Conditions: MRX518 10^7/ml, LPS 100 ng/ml, compared to the negative control, FIGS. 4a-d
Method: A monocyte population was isolated from peripheral blood mononuclear cells (PBMCs). The monocyte cells were subsequently differentiated into immature dendritic cells. The immature dendritic cells were plated out at 200,000 cells/well and incubated with MRX518 at a final concentration of 10^7/ml, with the optional addition of LPS at a final concentration of 100 ng/ml. The negative control involved incubating the cells with RPMI media alone and positive controls incubated the cells with LPS at a final concentration of 100 ng/ml. The cytokine content of the cells was then analysed.

lipopolysaccharide [LPS]
level of IL-6: increase | level of TNF-α: increase

Reference: patent US20230277602A1, “COMBINATION THERAPY FOR TREATING OR PREVENTING CANCER” (4D Pharma Research Limited, priority 2018, published 2023)
